Data: US10028992B2, “Methods of treating muscular dystrophy” (BOARD OF REGENTS OF THE NEVADA SYSTEM OF HIGHER EDUCATION …, priority 2012, dated 2018)
Like-named read-outs stand apart in the source and are kept apart here.

System: α7 integrin promoter
Experiment: muscle cell-based assay: α7βgal+/− myoblasts/myotubes, LacZ reporter, β-galactosidase cleavage of FDG
Design: species or system mouse; Results in α7+/− β-galactosidase assay: scale not given here
Settings: for Fit Curve Class: key not given
Outline: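 Fluorescein generated from FDG by β-galactosidase reports α7 integrin promoter activity in differentiated myoblasts from α7+/− LacZ knock-in pups. Screening hits then went to dose-response, western blotting and a myostatin counterscreen.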

[1] = Mus musculus, given as log AC50 (negative values), read-out: Fit LogAC50 (converted)
[2] = curve fit, activity at zero concentration

For CCCS(=O)(=O)c1nc(S(=O)(=O)c2ccc(C)cc2)c(N2CCCC2)s1 [drawing 572], the “Results in α7+/− β-galactosidase assay” value (Myoblasts, 0.5 uM) was 0.06463, the “Results in α7+/− β-galactosidase assay” value (Myoblasts, 1 uM) was 0.01847 and the “Results in α7+/− β-galactosidase assay” value (Myoblasts, 5 uM) was −0.2102. For the same compound, the “Results in α7+/− β-galactosidase assay” value (Myoblasts, 10 uM) was −0.5196, the “Results in α7+/− β-galactosidase assay” value (Myoblasts, 20 uM) was −0.8221 and the “Results in α7+/− β-galactosidase assay” value (Myoblasts, 40 uM) was −0.878.
In the case of CCC(C)n1nc(O)cc1N (stereo not shown) [drawing 641], the “Results in α7+/− β-galactosidase assay” value (Myoblasts, 0.5 uM) was 0.2618, the “Results in α7+/− β-galactosidase assay” value (Myoblasts, 1 uM) was 0.0875 and the “Results in α7+/− β-galactosidase assay” value (Myoblasts, 5 uM) was −0.07378. The “Results in α7+/− β-galactosidase assay” value (Myoblasts, 10 uM) was −0.09102, the “Results in α7+/− β-galactosidase assay” value (Myoblasts, 20 uM) was 0.1389 and the “Results in α7+/− β-galactosidase assay” value (Myoblasts, 40 uM) was 0.06802.
With Cc1ccccc1/C=C1\C(=O)Nc2ccc(F)cc21 [drawing 664] the “Results in α7+/− β-galactosidase assay” value (Myoblasts, 0.5 uM) was 0.2562, the “Results in α7+/− β-galactosidase assay” value (Myoblasts, 1 uM) was 0.1979 and the “Results in α7+/− β-galactosidase assay” value (Myoblasts, 5 uM) was 0.05318. The “Results in α7+/− β-galactosidase assay” value (Myoblasts, 10 uM) was 0.04838, the “Results in α7+/− β-galactosidase assay” value (Myoblasts, 20 uM) was −0.109 and the “Results in α7+/− β-galactosidase assay” value (Myoblasts, 40 uM) was −0.1352.
With CN(CC(=O)Nc1cccc(F)c1)C(=O)c1ccc(-c2ccc(Cl)cc2)o1 [Compound 90] the AC50 (Mus musculus, Table 12, log of AC50, given with negative sign, unit of AC50 not given, read-out: Fit Log AC50 (converted)) was 11.2 µM, the “Fit HillSlope” value (Table 12, curve fit) was 4.5045 and the “Fit Zero Activity [%]” value (Table 12, fitted activity at zero concentration) was 5.7331%. For the same compound, the “Fit Curve Class” value (Table 12) was 2.1 and the Score (Table 12 Compound data, concentration-response curve fit) was 43.
In the case of NC(=O)COc1ccc(C(=O)/C=C2\C(=O)Nc3ccccc32)cc1 [drawing 587], the “Results in α7+/− β-galactosidase assay” value (Myoblasts, 0.5 uM) was 0.211, the “Results in α7+/− β-galactosidase assay” value (Myoblasts, 1 uM) was −0.06344 and the “Results in α7+/− β-galactosidase assay” value (Myoblasts, 5 uM) was −0.1959. The “Results in α7+/− β-galactosidase assay” value (Myoblasts, 10 uM) was −0.647, the “Results in α7+/− β-galactosidase assay” value (Myoblasts, 20 uM) was −0.8153 and the “Results in α7+/− β-galactosidase assay” value (Myoblasts, 40 uM) was −0.9741.
In the case of Cc1cc(C)nc(NC(=O)c2ccc(Cl)cc2Cl)n1 [Compound 198], the EC50 [1] was 10 µM, the Score (Table 12 compound data) was 42 and the “Fit Curve Class” value (curve class number) was 2.2. For the same compound, the “Fit HillSlope” value (curve fit) was 4.9549 and the “Fit Zero Activity [%]” value [2] was 1.0914%.
In the case of CN(CCC1CCCCO1)C(=O)CCc1nnc(CCCCc2ccccc2)o1 (stereo not shown) [drawing 615], the “Results in α7+/− β-galactosidase assay” value (Myoblasts, 0.5 uM) was −0.05982, the “Results in α7+/− β-galactosidase assay” value (Myoblasts, 1 uM) was −0.07538 and the “Results in α7+/− β-galactosidase assay” value (Myoblasts, 5 uM) was −0.00182. The “Results in α7+/− β-galactosidase assay” value (Myoblasts, 10 uM) was −0.02349, the “Results in α7+/− β-galactosidase assay” value (Myoblasts, 20 uM) was 0.02509 and the “Results in α7+/− β-galactosidase assay” value (Myoblasts, 40 uM) was −0.00588.
In the case of CCc1ccc(Sc2cc(C(=O)NCCN3CCOCC3)c3ccccc3n2)cc1 [Compound 214], the EC50 [1] was 11.2 µM, the Score (Table 12 compound data) was 42 and the “Fit Curve Class” value (curve class number) was 2.1. For the same compound, the “Fit HillSlope” value (curve fit) was 2.0937 and the “Fit Zero Activity [%]” value [2] was 13.9034%.
For COc1ccc2c(c1)C(=C(C#N)C#N)C(=O)N2CCc1ccccc1 [drawing 522], the “Results in α7+/− β-galactosidase assay” value (Myoblasts, 0.5 uM) was 0.199, the “Results in α7+/− β-galactosidase assay” value (Myoblasts, 1 uM) was 0.06668 and the “Results in α7+/− β-galactosidase assay” value (Myoblasts, 5 uM) was −0.157. For the same compound, the “Results in α7+/− β-galactosidase assay” value (Myoblasts, 10 uM) was 0.1343, the “Results in α7+/− β-galactosidase assay” value (Myoblasts, 20 uM) was −0.3414 and the “Results in α7+/− β-galactosidase assay” value (Myoblasts, 40 uM) was −0.3915.
With CC(=O)Oc1c(Cl)cc(/C=C2\C(=O)Nc3ccccc32)cc1Cl [drawing 714] the “Result in α7+/− β-galactosidase assay” value (Myoblasts, 0.5 uM) was 0.1697, the “Result in α7+/− β-galactosidase assay” value (Myoblasts, 1 uM) was −0.08406 and the “Result in α7+/− β-galactosidase assay” value (Myoblasts, 5 uM) was 0.02082. For the same compound, the “Result in α7+/− β-galactosidase assay” value (Myoblasts, 10 uM) was 0.02563, the “Result in α7+/− β-galactosidase assay” value (Myoblasts, 20 uM) was −0.00439 and the “Result in α7+/− β-galactosidase assay” value (Myoblasts, 40 uM) was −0.1892.
O=C1Nc2ccccc2/C1=C1\Nc2ccccc2C1=O [drawing 508] was tested, and the “Results in α7+/− β-galactosidase assay” value (Myotubes, 0.5 uM) was −0.08969, the “Results in α7+/− β-galactosidase assay” value (Myotubes, 1 uM) was −0.08698 and the “Results in α7+/− β-galactosidase assay” value (Myotubes, 5 uM) was −0.493. The “Results in α7+/− β-galactosidase assay” value (Myotubes, 10 uM) was −0.5852, the “Results in α7+/− β-galactosidase assay” value (Myotubes, 20 uM) was −0.318 and the “Results in α7+/− β-galactosidase assay” value (Myotubes, 40 uM) was −0.3129.
For N=C(NOC(=O)COc1cc(Cl)c(Cl)cc1Cl)c1ccncc1 [Compound 125], the EC50 [1] was 11.2 µM, the Score (Table 12 compound data) was 43 and the “Fit Curve Class” value (curve class number) was 2.1. The “Fit HillSlope” value (curve fit) was 1.1705 and the “Fit Zero Activity [%]” value [2] was −2.6906%.
In the case of O=C1Nc2ccccc2/C1=C1/Nc2ccccc2/C1=N\O [drawing 518], the “Results in α7+/− β-galactosidase assay” value (Myotubes, 0.5 uM) was 0.09617, the “Results in α7+/− β-galactosidase assay” value (Myotubes, 1 uM) was 0.05181 and the “Results in α7+/− β-galactosidase assay” value (Myotubes, 5 uM) was −0.32. The “Results in α7+/− β-galactosidase assay” value (Myotubes, 10 uM) was −0.625, the “Results in α7+/− β-galactosidase assay” value (Myotubes, 20 uM) was −0.3346 and the “Results in α7+/− β-galactosidase assay” value (Myotubes, 40 uM) was −0.5024.
For Cc1cc(C2CCCCC2)n(O)c(=O)c1 [Ciclopirox ethanolamine, ciclopirox ethanolamine, reference compound], the EC50 (Mus musculus, enhancement of α7 integrin expression in muscle cells, read-out: EC50) was 0.6 µg/mL and the “Optimal Concentration” value (enhancement of α7 integrin expression in muscle cells) was 4 µg/mL.
